Here are results for three compounds from patent US5608081A, “Hydroxymethylpolythiophene derivatives” (Industrial Technology Research Institute, priority 1995, dated 1997).

The assay can be described thus: Anti-edema activity, conventional toe edema method using carrageenan as pyrogen and indomethacin as control inhibitory agent. As to conditions: inhibition rate above 30% considered also antiinflammatory. It counts as in vivo. On the procedure: The anti-edema activity was tested according to the conventional toe edema method using carrageenan as pyrogen and indomethacin as control inhibitory agent. See C. A. Winter, E. A. Risley and G. W. Nuss, Biol. Med., 111, 544 (1962); and A. P. Roszkowshi, W. H. Rooks II, A. J. Tomolonis and L. M. Miller, J. Pharmacol. Exp. Ther., 179, 114 (1971), both of which are hereby incorporated by reference.
In general, polythiophene derivatives of this invention have shown significant anti-edema activity.

With `OCc1ccc(-c2ccc(CO)s2)s1`, the “Anti-edema effect, inhibition rate” value is, setting by setting: (dosage 10 mg/kg) 26%; (dosage 50 mg/kg) 34%; (dosage 100 mg/kg) 37%; (dosage 200 mg/kg) 41%.
`CC(=O)OCc1ccc(-c2ccc(COC(C)=O)s2)s1`: the “Anti-edema effect, inhibition rate” value worked out at 17% (dosage 50 mg/kg), 28% (dosage 100 mg/kg) and 28% (dosage 200 mg/kg).
Turning to `OCCC#Cc1ccc(-c2cccs2)s1`, the “Anti-edema effect, inhibition rate” value (dosage 50 mg/kg) is listed as 32%; the “Anti-edema effect, inhibition rate” value (dosage 100 mg/kg) came out at 36%; the “Anti-edema effect, inhibition rate” value (dosage 200 mg/kg) is recorded as 38%.
